Results from patent publication US7959907B2, “Method of treating cancer by combination therapy using TNF and alpha-galactosylceramide” (VIB VZW, priority 2007, dated 2011).

Columns and labels:
B16B16 melanoma = assay: Tumour experiment: subcutaneously growing B16B16 melanoma in C57BL/6 mice, tumor size index; format: in vivo
Protocol: Female C57BL/6J@RJ mice were purchased from Janvier (Le Genest-Saint-Isle, France). The animals were housed in 14-10 hours light/dark cycles in a temperature-controlled, air-conditioned room, and received food and water ad libitum. The mice were used for the tumour experiment at the age of 8-12 weeks.
The melanin-positive melanoma B16B16 cells (Hart et al., 1979) were cultured in RPMI 1640 (Invitrogen) supplemented with 10% FCS, 50 IU/ml penicillin G, 50 μg/ml streptomycin sulphate, 2 mM L-glutamine and 0.4 mM Na-pyruvate. For tumor inoculation cells were detached from the culture flask by a short EDTA treatment, washed three times in endotoxin-free sterile PBS (Sigma), and resuspended in PBS at 6×10^6 cells/ml.
On day 0, the mice were inoculated with 6×10^5 cells subcutaneously in the back just in front of the hind limb. Treatment was started when the tumor size index (TSI), i.e., the product of the largest perpendicular diameters in cm, reached 0.5 (day 13). Treatment with hTNF (30 μg/injection) or low dose mTNF (0.7 μg/injection) was given daily for 9 or 10 consecutive days via paralesional injection (subcutaneous injection near the site of the tumor, but outside the nodule). Alpha-GalCer (1-2 μg/injection) was injected intraperitoneally. […] TSI and body weight were measured every day prior to injection and every two or three days when treatment was finished.

cancer = details: clinical studies; cited from earlier work

CCCCCCCCCCCCCCCCCCCCCCCCCC(=O)N[C@@H](CO[C@H]1O[C@H](CO)[C@H](O)[C@H](O)[C@H]1O)[C@H](O)[C@H](O)CCCCCCCCCCCCCC [alpha-GalCer, (2S 3S, 4R)-1-O-(alfa-D-galactopyranosyl)-N-hexacosanoyl-2-amino-1,3,4-octadecanetriol]
effect on tumour growth (B16B16 melanoma; larger scale experiment, n=7, alpha-GalCer 1 μg/mouse pre-treatment, hTNF 30 μg/injection, low dose mTNF 0.7 μg/injection): small inhibiting effect | effect on tumor growth (B16B16 melanoma; pilot experiment, alpha-GalCer 2 μg/mouse i.p., hTNF 30 μg/injection paralesional daily, single agents alone): no effect on tumor growth | clinical anti-tumour effects (cancer): no clinical anti-tumour effects were recorded
